Results from patent US20210101879A1, “AMYLOID PROTEIN-SELECTIVE BACE INHIBITORS (ASBIs) FOR ALZHEIMER?S DISEASE” (The Regents of the University of California, priority 2018, published 2021).
Several values for one entry are separate records, joined by “and”; a condition that tells them apart may be missing. Equal values may be shown once. Read-outs that look alike come from different tables or passages of the source.

Key:
Cathepsin D (CatD) = Cathepsin D (CatD) (Homo sapiens (Human), UniProt P07339); test: Cathepsin-D assay; assay type: biochemical
Procedure: For the assay, 4 μL of assay buffer was added to each well, followed by 2 μL of Cathepsin D (CatD) diluted in assay buffer to 5 ng/μL. Then, 2 μL of inhibitor, prepared to get a testing concentration of 20 μM, were added to appropriated wells and incubated for 30 minutes at room temperature. Afterwards, 2 μL of CatD substrate, diluted to 50 μM in assay buffer, were added to each well, after which the signal generated was read every 30 minutes at 25° C. for 1 hr. Signals shown in FIG. 6 are representative of readings at 1 hr.

pharmacokinetics in mice = assay type: in vivo
[1] = tested on: p-selectin glycoprotein ligand 1 (PSGL-1) (Homo sapiens (Human)); test: PSGL1 cleavage assay in PSGL1-BACE1 co-transfected 293T cells; assay type: cell-based
Procedure: (§1) 293T cells were plated in 96-well plates at 40,000 cells/well, incubated overnight at 37° C. and 5% CO2. Next day, cells were co-transfected with NRG1-BACE1 plasmids or PSGL1-BACE1 plasmids using Lipofectamine2000, as describe previously. Six hours after transfection, the reagents were removed and media containing the different compounds at various concentrations were loaded into each well.
(§2) After overnight incubation with the compounds, 20 μL of media were removed and added to a new plate. Then, 200 μl of reaction solution (0.1 M glycine, pH 10.4, 1 mM MgCl2, 1 mM ZnCl2 containing 1 mg/ml 4-nitrophenyl phosphate disodium salt hexahydrate, Sigma S0942) were loaded into each well of the plate. The absorbance was read at 405 nm for 60 min in 30 min intervals in a SpectraMax M5.
(§3) These compounds were diluted to 10 mM in DMSO. This solution was diluted to 20, 10, 2, 1, 0.2 and 0.02 μM in DMEM high Glucose containing 10% of FBS and 1% of Penicillin-Streptomycin containing 0.2% DMSO.

[2] = pharmacokinetic study in rats; assay type: in vivo; conditions: wildtype Sprague-Dawley rats, 30 mg/kg orally, at 2 hours
BACE cleavage of APP [3] = test: pharmacodynamic pilot study in rats (CSF and brain tissue); assay type: in vivo, Sprague-Dawley rats; conditions: 30 mg/kg orally
BACE-1 = BACE-1 (Homo sapiens (Human), UniProt P56817); test: cell-free BACE enzyme assay with P5-P5′ substrate; assay type: biochemical
Procedure: For the assay, 4 μL of assay buffer was added to each well, followed by 2 μL of BACE-1 diluted in assay buffer to 7.5 ng/μL. Then, 2 μL of inhibitor, at concentrations along an 11 pt. two-fold dilution series starting at 0.5 μM, were added to appropriate wells and incubated for 30 minutes at room temperature. Afterwards, 2 μL of P5-P5′ BACE-1 substrate, diluted to 50 μM in assay buffer, were added to each well, after which the signal generated was read every 30 minutes at 25° C. for 2 hr.

[4] = tested on: CHO-7W cells (stably transfected with human amyloid precursor protein wildtype); test: CHO-7W cell assay (AlphaLISA of media); assay type: cell-based, Chinese hamster; conditions: treatment for 24 hours
Procedure: For the assay, 50 μL of CHO-7W cells were added to each well at 4×10^5 cells/mL. Then, 50 μL of inhibitor, prepared for tested concentrations, were added to appropriated wells and incubated for 24 hours at 37° C. Afterwards, media from each well is collected and assayed using an AlphaLISA assay for respective analytes.

PAMPA = assay type: in vitro ADME
BACE cleavage of APP [5] = test: pilot study in AD model mice; assay type: in vivo; conditions: orally 30 mg/kg/day for 10 days
[6] = tested on: neuregulin 1 (NRG-1) (Homo sapiens (Human)); test: NRG1 cleavage assay in NRG1-BACE1 co-transfected 293T cells; assay type: cell-based
Procedure: as §1, §2, §3

BACE-1, sequence (P56817 46-501): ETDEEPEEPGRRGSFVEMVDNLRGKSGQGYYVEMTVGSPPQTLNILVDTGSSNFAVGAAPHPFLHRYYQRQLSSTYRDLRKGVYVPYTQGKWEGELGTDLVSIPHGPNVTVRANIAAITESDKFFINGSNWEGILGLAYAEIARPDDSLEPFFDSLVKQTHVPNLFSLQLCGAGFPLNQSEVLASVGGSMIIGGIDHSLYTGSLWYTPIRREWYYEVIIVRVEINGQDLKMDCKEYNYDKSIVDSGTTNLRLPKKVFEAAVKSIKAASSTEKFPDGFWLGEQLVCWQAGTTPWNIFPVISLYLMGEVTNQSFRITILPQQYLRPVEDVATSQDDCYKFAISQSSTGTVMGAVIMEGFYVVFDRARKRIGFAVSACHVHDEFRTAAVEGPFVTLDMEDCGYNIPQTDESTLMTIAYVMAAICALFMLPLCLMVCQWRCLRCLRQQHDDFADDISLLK
Cathepsin D (CatD), sequence (P07339 65-412, species assumed): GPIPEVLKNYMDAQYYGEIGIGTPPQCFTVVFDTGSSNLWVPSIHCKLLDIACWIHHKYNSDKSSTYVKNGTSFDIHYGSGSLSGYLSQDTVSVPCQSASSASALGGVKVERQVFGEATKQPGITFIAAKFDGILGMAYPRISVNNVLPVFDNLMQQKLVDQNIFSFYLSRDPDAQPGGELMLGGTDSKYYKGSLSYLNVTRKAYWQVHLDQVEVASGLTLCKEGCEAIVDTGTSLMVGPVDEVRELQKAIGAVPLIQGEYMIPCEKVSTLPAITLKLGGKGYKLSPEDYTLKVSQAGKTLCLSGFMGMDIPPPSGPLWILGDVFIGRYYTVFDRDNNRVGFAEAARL

IC50 (Cathepsin D (CatD)): 47.1 µM
brain penetrance (pharmacokinetics in mice): brain-penetrant
peak in brain (pharmacokinetics in mice; oral delivery at 30 mg/kg, one hour post-dosing): 74 ng/g
inhibitory activity in cleavage of p-selectin glycoprotein ligand 1 (PSGL-1) [1]: little cleavage
brain peak [2]: 182 ng/g
IC50 (BACE-1; cell-free BACE assay): 0.022 µM
IC50 (BACE-1; cell-free, several replicate values per cell, some flagged 's' (flag not defined), read-out: BACE1 IC50): 0.005 to 0.01 µM and 0.019 µM and 0.0112 µM and 0.016 µM and 0.011 µM and 0.015 µM and 0.024 µM and 0.014 µM
soluble amyloid precursor protein beta (sAPPβ) [4]: significantly decreased
inhibitory activity in cleavage of neuregulin 1 (NRG-1) [6]: little cleavage
Structure (SMILES): Cc1cc(C2(c3cccc(-c4cncnc4)c3)N=C(N)N(C)C2=O)ccc1OC(F)F (racemic) [FAH-65, 2-amino-5-(4-(difluoromethoxy)-3-methylphenyl)-3-methyl-5-(3-(pyrimidin-5-yl)phenyl)-3,5-dihydro-4H-imidazol-4-one]
sAPPβ in CSF (BACE cleavage of APP [3]; at 3 and 6 hours, vs untreated controls): reduced
Aβ1-40 levels (BACE cleavage of APP [3]; compared to control, decrease persisted to 24 hours): decreased
amyloid-beta (Aβ) [4]: significantly decreased
PAMPA (PAMPA): 0.44 and 0.45 and 0.46 and 0.47 and 0.52 and 0.48 and 0.49
BACE/γ-secretase product Aβ (BACE cleavage of APP [5]): trend to decrease
decrease of APP-derived BACE cleavage product βCTF (beta C-terminal fragment) (BACE cleavage of APP [5]): significantly
